Laboratory results from paper PMC12566593, “Effects of Different Centrifugation Parameters on Equilibrium Solubility Measurements” (Methods and Protocols, 2025).
Structures can show the parent of a compound that is named as a salt. Where two headings read alike, the source gives them in different places.

What was measured:
[1] = Ionization state calculated from pKa and buffer pH; assay type: physicochemical; details: pH 6.4
From the text: Depending on the pH, the molecule exists as the neutral acid (H2A), monoanion (HA^−), or dianion (A^2−). […] These values were derived from the mole fraction (x) of the various species, based on the compound’s known pKa values and the corresponding buffer pH (Equations (3)–(6)).

[2] = cited from earlier work; for Filtration: Result Range: % of reference, all filters
[3] = Equilibrium solubility, saturation shake-flask, centrifugation as phase separation; details: for solubility thermodynamic / solubility thermodynamic at 24 h: Britton-Robinson buffer; for solubility thermodynamic: sedimented before centrifugation; for solubility thermodynamic at 24 h: continuously stirred, no sedimentation; for Centrifugation: Result Range: % of reference, all centrifugation protocols
Method: To determine equilibrium solubility, the samples were added to Britton-Robinson buffer solutions (BRB) adjusted to specific pH values, obtaining a heterogenous system (Table S2). BR buffers were used in the experiments across a pH range of 2.0 to 11.0, prepared by combining 0.04 M acetic acid, 0.04 M phosphoric acid, and 0.04 M boric acid. The mixture was then titrated with varying amounts of 0.2 M NaOH to achieve the desired pH values. The ionic strength was kept constant (I = 0.15) across all pH values using appropriate amounts of inert KCl. […] The exception was progesterone, a neutral molecule, for which only a single pH condition was necessary. […] This strategy enabled a more comprehensive assessment of how centrifugation parameters influence solubility. Different amounts of 0.2 M NaOH were used to adjust the pH of the buffer to the desired values, between pH 2.0 and 11.0.
(§1) Samples were stirred using the μDISS Profiler™ (Pion Inc., Billerica, MA, USA) at 150 rpm [33], the pH was checked after 1 h and adjusted, if necessary, with either 0.1 M HCl or 0.1 M NaOH. To confirm the reliability of the results, the pH was measured again at the end of each experiment. Prior to centrifugation, two different approaches were applied: stirring samples for 6 h, followed by 18 h of sedimentation, according to the standardized protocol [18], or continuously stirring samples for 24 h, without a subsequent sedimentation step.
From each sample, aliquots of 10 mL were transferred into centrifugation tubes and centrifuged using a Sartorius 2–16P type centrifuge.
(§2) After centrifugation, the concentration was measured by the μDISS Profiler™ (Pion Inc., Billerica, MA, USA) equipped with UV probes. The aliquots were diluted with the buffer solution if necessary. The 2nd derivative method was utilized in the AuPRO™ 7.1 software (Pion Inc., Billerica, MA, USA) to determine the concentration of the samples after a calibration was conducted for each substance. Calibration was performed by adding small volumes of methanolic stock solutions with known concentrations to buffer solutions of defined pH. Separate calibration curves were prepared for each UV probe.
At least three parallel measurements were carried out for each compound with each combination of variables (Table S1). Equilibrium solubility measurements using centrifugation were compared to those obtained by using only sedimentation.

[4] = Equilibrium solubility, saturation shake-flask, sedimentation as phase separation (reference, standard protocol); details: for solubility: Britton-Robinson buffer
From the text: BR buffers were used in the experiments across a pH range of 2.0 to 11.0, prepared by combining 0.04 M acetic acid, 0.04 M phosphoric acid, and 0.04 M boric acid. The mixture was then titrated with varying amounts of 0.2 M NaOH to achieve the desired pH values. The ionic strength was kept constant (I = 0.15) across all pH values using appropriate amounts of inert KCl. […] Different amounts of 0.2 M NaOH were used to adjust the pH of the buffer to the desired values, between pH 2.0 and 11.0.
as §1, §2
At least three parallel measurements were carried out for each compound with each combination of variables (Table S1).

In the case of COc1ccc(Cc2nccc3cc(OC)c(OC)cc23)cc1OC [PAP-HCL, papaverine hydrochloride], the Fraction ionized [1] is listed as 50%, the “Filtration: Result Range” value ([2]; pH 3.0) is listed as 85–95% and the “Filtration: Closest to Reference (100%)” value ([2]; pH 3.0) is listed as 95%. The “Filtration: Result Range” value ([2]; pH 6.4) was 42–106%, the “Filtration: Closest to Reference (100%)” value ([2]; pH 6.4) was 95% and the “Filtration: Result Range” value ([2]; pH 10.0) was 62–95%. The “Filtration: Closest to Reference (100%)” value ([2]; pH 10.0) was 95%, the “Solubility higher than the reference” value ([3]; 10,000 rpm for 20 min without prior sedimentation) was 60–70% and the solubility thermodynamic ([3]; 25 °C, pH 3, aqueous buffer, thermodynamic from solid, Equilibrium solubility S sed, pH 3.0, 5000 rpm, 5 min) was 37.2 mg/mL. The solubility thermodynamic ([3]; 25 °C, pH 3, aqueous buffer, thermodynamic from solid, Equilibrium solubility S sed, pH 3.0, 5000 rpm, 10 min) was 38 mg/mL, the solubility thermodynamic ([3]; 25 °C, pH 3, aqueous buffer, thermodynamic from solid, Equilibrium solubility S sed, pH 3.0, 5000 rpm, 20 min) was 37.1 mg/mL and the solubility thermodynamic ([3]; 25 °C, pH 3, aqueous buffer, thermodynamic from solid, Equilibrium solubility S sed, pH 3.0, 10,000 rpm, 5 min) was 39.5 mg/mL. For the same compound, the solubility thermodynamic ([3]; 25 °C, pH 3, aqueous buffer, thermodynamic from solid, Equilibrium solubility S sed, pH 3.0, 10,000 rpm, 10 min) was 40.9 mg/mL, the solubility thermodynamic ([3]; 25 °C, pH 3, aqueous buffer, thermodynamic from solid, Equilibrium solubility S sed, pH 3.0, 10,000 rpm, 20 min) was 39.5 mg/mL and the solubility thermodynamic at 24 h ([3]; 25 °C, pH 3, aqueous buffer, thermodynamic from solid, Equilibrium solubility S stir, pH 3.0, 5000 rpm, 5 min) was 36.8 mg/mL. It also gave a solubility thermodynamic at 24 h ([3]; 25 °C, pH 3, aqueous buffer, thermodynamic from solid, Equilibrium solubility S stir, pH 3.0, 5000 rpm, 10 min) of 41.1 mg/mL, a solubility thermodynamic at 24 h ([3]; 25 °C, pH 3, aqueous buffer, thermodynamic from solid, Equilibrium solubility S stir, pH 3.0, 5000 rpm, 20 min) of 38.4 mg/mL and a solubility thermodynamic at 24 h ([3]; 25 °C, pH 3, aqueous buffer, thermodynamic from solid, Equilibrium solubility S stir, pH 3.0, 10,000 rpm, 5 min) of 39.1 mg/mL. It also gave a solubility thermodynamic at 24 h ([3]; 25 °C, pH 3, aqueous buffer, thermodynamic from solid, Equilibrium solubility S stir, pH 3.0, 10,000 rpm, 10 min) of 40.4 mg/mL, a solubility thermodynamic at 24 h ([3]; 25 °C, pH 3, aqueous buffer, thermodynamic from solid, Equilibrium solubility S stir, pH 3.0, 10,000 rpm, 20 min) of 39.3 mg/mL and a solubility thermodynamic ([3]; 25 °C, pH 6.4, aqueous buffer, thermodynamic from solid, Equilibrium solubility S sed, pH 6.4, 5000 rpm, 5 min) of 0.0244 ± 0.00048 mg/mL. For the same compound, the solubility thermodynamic ([3]; 25 °C, pH 6.4, aqueous buffer, thermodynamic from solid, Equilibrium solubility S sed, pH 6.4, 5000 rpm, 10 min) was 0.0282 ± 0.00078 mg/mL, the solubility thermodynamic ([3]; 25 °C, pH 6.4, aqueous buffer, thermodynamic from solid, Equilibrium solubility S sed, pH 6.4, 5000 rpm, 20 min) was 0.0282 ± 0.00073 mg/mL and the solubility thermodynamic ([3]; 25 °C, pH 6.4, aqueous buffer, thermodynamic from solid, Equilibrium solubility S sed, pH 6.4, 10,000 rpm, 5 min) was 0.0244 ± 0.00117 mg/mL. The solubility thermodynamic ([3]; 25 °C, pH 6.4, aqueous buffer, thermodynamic from solid, Equilibrium solubility S sed, pH 6.4, 10,000 rpm, 10 min) was 0.0328 ± 0.00081 mg/mL, the solubility thermodynamic ([3]; 25 °C, pH 6.4, aqueous buffer, thermodynamic from solid, Equilibrium solubility S sed, pH 6.4, 10,000 rpm, 20 min) was 0.0312 ± 0.00108 mg/mL and the solubility thermodynamic at 24 h ([3]; 25 °C, pH 6.4, aqueous buffer, thermodynamic from solid, Equilibrium solubility S stir, pH 6.4, 5000 rpm, 5 min) was 0.033 ± 0.00211 mg/mL. For the same compound, the solubility thermodynamic at 24 h ([3]; 25 °C, pH 6.4, aqueous buffer, thermodynamic from solid, Equilibrium solubility S stir, pH 6.4, 5000 rpm, 10 min) was 0.0323 ± 0.00154 mg/mL, the solubility thermodynamic at 24 h ([3]; 25 °C, pH 6.4, aqueous buffer, thermodynamic from solid, Equilibrium solubility S stir, pH 6.4, 5000 rpm, 20 min) was 0.0329 ± 0.00126 mg/mL and the solubility thermodynamic at 24 h ([3]; 25 °C, pH 6.4, aqueous buffer, thermodynamic from solid, Equilibrium solubility S stir, pH 6.4, 10,000 rpm, 5 min) was 0.0286 ± 0.00155 mg/mL. It also gave a solubility thermodynamic at 24 h ([3]; 25 °C, pH 6.4, aqueous buffer, thermodynamic from solid, Equilibrium solubility S stir, pH 6.4, 10,000 rpm, 10 min) of 0.0378 ± 0.00207 mg/mL, a solubility thermodynamic at 24 h ([3]; 25 °C, pH 6.4, aqueous buffer, thermodynamic from solid, Equilibrium solubility S stir, pH 6.4, 10,000 rpm, 20 min) of 0.0391 ± 0.00134 mg/mL and a solubility thermodynamic ([3]; 25 °C, pH 10, aqueous buffer, thermodynamic from solid, Equilibrium solubility S sed, pH 10.0, 5000 rpm, 10 min) of 0.0143 ± 0.00017 mg/mL. It also gave a solubility thermodynamic ([3]; 25 °C, pH 10, aqueous buffer, thermodynamic from solid, Equilibrium solubility S sed, pH 10.0, 10,000 rpm, 5 min) of 0.0163 ± 0.00057 mg/mL, a solubility thermodynamic ([3]; 25 °C, pH 10, aqueous buffer, thermodynamic from solid, Equilibrium solubility S sed, pH 10.0, 10,000 rpm, 10 min) of 0.0175 ± 0.00018 mg/mL and a solubility thermodynamic ([3]; 25 °C, pH 10, aqueous buffer, thermodynamic from solid, Equilibrium solubility S sed, pH 10.0, 10,000 rpm, 20 min) of 0.0187 ± 0.00241 mg/mL. For the same compound, the solubility thermodynamic at 24 h ([3]; 25 °C, pH 10, aqueous buffer, thermodynamic from solid, Equilibrium solubility S stir, pH 10.0, 5000 rpm, 5 min) was 0.0184 ± 0.00028 mg/mL, the solubility thermodynamic at 24 h ([3]; 25 °C, pH 10, aqueous buffer, thermodynamic from solid, Equilibrium solubility S stir, pH 10.0, 10,000 rpm, 10 min) was 0.0182 ± 0.00112 mg/mL and the solubility thermodynamic at 24 h ([3]; 25 °C, pH 10, aqueous buffer, thermodynamic from solid, Equilibrium solubility S stir, pH 10.0, 10,000 rpm, 20 min) was 0.0287 ± 0.0007 mg/mL. It also gave a solubility thermodynamic ([3]; pH 10, Equilibrium solubility S sed, pH 10.0, 5000 rpm, 5 min) of 0.017 ± 0.00086 mg/mL, a solubility thermodynamic ([3]; pH 10, Equilibrium solubility S sed, pH 10.0, 5000 rpm, 20 min) of 0.0144 ± 0.00038 mg/mL and a solubility thermodynamic at 24 h ([3]; pH 10, Equilibrium solubility S stir, pH 10.0, 5000 rpm, 10 min) of 0.0133 ± 0.0002 mg/mL. For the same compound, the solubility thermodynamic at 24 h ([3]; pH 10, Equilibrium solubility S stir, pH 10.0, 5000 rpm, 20 min) was 0.0169 ± 0.00079 mg/mL, the solubility thermodynamic at 24 h ([3]; pH 10, Equilibrium solubility S stir, pH 10.0, 10,000 rpm, 5 min) was 0.0178 ± 0.0005 mg/mL and the “Centrifugation: Closest to Reference (100%)” value (from here on “Centrifugation … (100%)”) ([3]; pH 3.0) was 100%. For the same compound, the “Centrifugation: Result Range” value ([3]; pH 3.0) was 91–102%, the “Centrifugation … (100%)” value ([3]; pH 6.4) was 101% and the “Centrifugation: Result Range” value ([3]; pH 6.4) was 101–162%. For the same compound, the “Centrifugation … (100%)” value ([3]; pH 10.0) was 100%, the “Centrifugation: Result Range” value ([3]; pH 10.0) was 78–170% and the “Solubility compared to the other samples” value ([3]; pH 10.0, higher centrifugation speed, 20 min of centrifugation) was “nearly doubled”. The solubility ([4]; 25 °C, pH 3, aqueous buffer, thermodynamic from solid, Solubility (reference), pH 3.0, 6 h stirring, 18 h sedimentation) was 40.4 mg/mL, the solubility ([4]; 25 °C, pH 6.4, aqueous buffer, thermodynamic from solid, Solubility (reference), pH 6.4, 6 h stirring, 18 h sedimentation) was 0.0242 ± 0.0011 mg/mL and the solubility ([4]; pH 10, Solubility (reference), pH 10.0, 6 h stirring, 18 h sedimentation, 25 °C) was about 0.017 mg/mL. The “Solubility at pH 3.0 relative to pH 10.0” value ([4]; fully ionized vs neutral form) was “around 2350 times” and the “Solubility (reference)” value ([4]; pH 10.0, 6 h stirring, 18 h sedimentation, 25 °C) was 0.0169 ± 0.0017 mg/mL.
